Where two headings read alike, the source gives them in different places. One block for each compound: values may come before it.
Columns and labels:
[1] = 17O NMR water exchange (residence time of water co-ligand); type: physicochemical; settings: 17O NMR at 11.7T; for τM^310K, mean residence time of the water co-ligand at 310 K: q = 1 assumed
Protocol: (§1) Relaxivity measurements were performed on a Bruker mq60 Minispec at 1.41T and 37 °C. Longitudinal (T1) relaxation times were measured using an inversion recovery experiment with 10 inversion times of duration ranging between 0.05 × T1 and 5 × T1. Transverse (T2) relaxation times were measured using a CPMG pulse sequence. Relaxivity (r1, r2) was determined from the slope of a plot of 1/T1,2 vs [Gd] for at least 4 concentrations of Gd(III) (data shown in Supplementary Figs. 93–110). The T2 relaxation times of ^17O at 11.7T were estimated from the full-width at half-height of the H2^17O resonance at temperatures ranging from 278 to 368K. Reduced relaxation rates (1/T2r) were calculated by taking the difference of 1/T2 measured in the presence and absence of Gd(III) and dividing by the mole fraction of coordinated water molecules, assuming q = 1. […] However, at the high magnetic field used, and because of the very-fast water exchange rates observed, there was negligible contribution of T1e, and the data were refit to a two-parameter model using the water exchange rate at 310K (τM) and enthalpy of activation for water exchange (ΔH^‡) as adjustable parameters. The Gd-O hyperfine coupling constant, A/ħ, was assumed to be -3.8 × 10^6 rad s^−1 [57], [58]. Samples were prepared in neat H2O adjusted and enriched with a small amount of H2^17O.

[2] = Ex vivo biodistribution 2 h post injection after MRI study (ICP-MS); type: in vivo, C57/Bl6 mice; settings: 0.1 mmol per kg i.v.
Protocol: (§2) Gd concentrations were determined using an Agilent 8800-QQQ ICP-MS system. All samples were diluted with 0.1% Triton X-100 in 5% nitric acid. Lutetium internal standard was steadily introduced to the ICP-MS from an external source during the analysis. A linear calibration curve for each metal ranging from 0.1 ppb to 200 ppb was generated daily for the quantification.
(§3) Imaging was performed at 4.7T using a small-bore animal scanner (Bruker Biospec). Pilot dynamic MRI studies were performed with [GdL1]^−, [GdL2A]^−, [GdL2B]^− and [GdL5]^−; n = 1 per compound. Six to eight weeks male C57/Bl6 mice were anaesthetised with isoflurane (1%–2%) and placed in a specially designed cradle with body temperature maintained at 37 °C. The tail vein was catherised for intravenous delivery of the contrast agent while the animal was positioned in the scanner. A pneumatic pillow was placed on the mouse to enable respiratory monitoring (SA Instruments), and the animal’s body temperature was maintained with warm air. The imaging protocol utilised a three-dimensional fast low angle shot (3D FLASH) with a […] flip angle, 9.00 ms repetition rate, 2.39 ms echo time, 4.8 cm × 2.4 cm × 2.4 cm field of view with a 0.3 mm isotropic resolution. Images were acquired with either 2 or 8 averages giving an acquisition time of 2 min or 8 min, respectively. Baseline images were acquired with both 2 and 8 averages, then the Gd complex (0.1 mmol per kg) was injected intravenously and the sequence with 2 averages was repeated for a period of 10 min to monitor blood clearance. At 10, 30, 45, 60, 75 and 90 min after probe injection, the sequence with 8 averages was repeated to monitor the clearance of contrast from the liver and kidneys. After imaging was performed, the mouse was removed from the scanner and euthanized at 2 h post injection and the tissues were harvested for Gd quantification by ICP-MS.

[3] = Kinetic stability of Gd complexes monitored by RP-HPLC (acid, base, DTPA, DOTA, ZnCl2); type: physicochemical
Source text: The kinetic stability of GBCAs, which reflects the dissociation of the Gd ions from its chelate is used to predict the stability in vivo[10]. The proton-assisted dissociation and direct attack of the endogenous ions are regarded as two main pathways that induced the dissociation of the chelates. The inertness of our Gd(III) complexes was maintained up to 7 days after addition of 1000 equivalents of a competitive ligand, DTPA (Supplementary Fig. 7 & 8). […] The harshest condition tried was setting the complexes of [GdL2A]^−, [GdL2B]^− and [GdDOTA]^− in 1N HCl (Fig. 5, Supplementary Figs. 13 - 15).
Fig. […] Error bars for [GdL2A]^- and [GdL2B]^- refer to the standard error of mean (S.E.M.), statistical data fitting analysis (n = 3; s.e.m.)

[4] = Relaxivity measurements at 1.41T and 37 °C; type: physicochemical
Protocol: as §1

[5] = In vivo dynamic T1-weighted MR imaging at 4.7T; set-up: species or system C57/Bl6 mice; settings: 0.1 mmol per kg i.v., 4.7 tesla, n = 1
Protocol: Dynamic T1-weighted MR imaging at 4.7 tesla was performed with C57/Bl6 mice before, during, and after 0.1 mmol per kg injection of each compound (Fig. 7).
as §3

[6] = cited from earlier work
[7] = cited from earlier work; for elimination through the biliary system: predominantly renal elimination
[8] = Gd complexes biodistribution studies (ICP-MS); type: in vivo, BALB/c mice; settings: 0.025 mmol/kg i.v.; for Gd biodistribution / elimination profile: 5-360 min post injection
Source text: Most commercially available Gd(III)-based MRI contrast agents are excreted rapidly and exclusively through the renal pathway. One of the few exceptions is an acyclic compound, Gd-EOB-DTPA, which has a mixed clearance (50% renal, 50% biliary) and is used for imaging of the liver and biliary system. Gd-BOPTA and MS-325 have predominantly renal elimination with <10% elimination through the biliary system. […] We illustrated with our studies that there is a significant variation in the biodistribution profiles despite the small structural differences of the chiral substituents (Supplementary Fig. 20). Gd biodistribution in BALB/c mice was measured by ICP-MS at 5, 15, 30, 60, 180 and 360 min following injection. […] Low levels of Gd(III) are present at 6 h post injection. […] The specific and unusual localisation of [GdL2]^− in the liver makes it a potential hepatobiliary-specific MRI contrast agent.
as §2
Complexes [GdL1]^−, [GdL2]^− and [GdL5]^− were prepared by dissolving in saline solution, while [GdDOTA]^− (Dotarem) was diluted in saline solution. Eight-week-old male BALB/c mice (purchased from BioLASCO, Taiwan) each weighing approximately 25 g were administered with a single dose of 0.025 mmol/kg compound ([GdL1]^−, [GdL2]^−, [GdDOTA]^− and [GdL5]^−; 3 mice per compound per time point) in a 100 μl volume via lateral tail vein injection. The mice were then euthanized, and their blood collected by cardiac puncture at each time point (5, 15, 30, 60, 180 or 360 min post injection). A control group of 4 mice was treated with saline and killed at time point 0. The liver, lung, heart, kidneys, spleen and brain were removed from the animals and weighed. Gd content in tissue and blood samples was quantified via ICP-MS analysis. All experiments were performed in accordance with the NIH Guide for the Care and Use of Laboratory Animals and approved by the Institutional Animal Care and Use Committee of Massachusetts General Hospital or by the Department of Health of the Hong Kong Government and the Animal Subjects Ethics Sub-Committee of Hong Kong Polytechnic University.

τM^310K, mean residence time of the water co-ligand at 310 K [1]: 1.1 ± 0.1 ns | Gd concentration in gall bladder [2]: 1066 nmol Gd per gram tissue | Gd concentration in blood ([2]; listed as GdL2B): 0.60 nmol Gd per gram tissue | Gd concentration in gall bladder ([2]; listed as GdL2B): 1066.22 nmol Gd per gram tissue | Gd concentration in heart ([2]; listed as GdL2B): 3.09 nmol Gd per gram tissue | Gd concentration in intestines ([2]; listed as GdL2B): 47.07 nmol Gd per gram tissue | Gd concentration in kidney ([2]; listed as GdL2B): 7.42 nmol Gd per gram tissue | Gd concentration in liver ([2]; listed as GdL2B): 1.12 nmol Gd per gram tissue | Gd concentration in lung ([2]; listed as GdL2B): 2.63 nmol Gd per gram tissue | Gd concentration in muscle ([2]; listed as GdL2B): 5.43 nmol Gd per gram tissue | Gd concentration in spleen ([2]; listed as GdL2B): 4.82 nmol Gd per gram tissue | Gd concentration in stomach ([2]; listed as GdL2B): 1.05 nmol Gd per gram tissue | Gd concentration in tail ([2]; listed as GdL2B): 2.64 nmol Gd per gram tissue | decomplexation ([3]; 0.1N NaOH, over 10 days): negligible decomplexation | decomplexation ([3]; 1N HCl, room temperature, after 487 h): only minimal decomplexation | decomplexation ([3]; 1N HNO3, over 10 days): negligible decomplexation | stability and interconversion ([3]; one equivalent of DOTA ligand in 1N HCl): no interconversion was observed | r1 relaxivity ([4]; 4.5% w/v HSA (1.4T)): 4.8 mM⁻¹ s⁻¹ | r1 relaxivity ([4]; Human Plasma (1.4T)): 4.9 mM⁻¹ s⁻¹ | r1 relaxivity ([4]; Water (1.4T)): 3.9 mM⁻¹ s⁻¹
SMILES: CC[C@H]1CN(CC(=O)[O-])[C@@H](CC)CN(CC(=O)[O-])[C@@H](CC)CN(CC(=O)[O-])[C@@H](CC)CN1CC(=O)[O-].[Gd+3] [[GdL2B]^−]
MR enhancement of liver and gall bladder [5]: profound enhancement of the liver and gall bladder | MR signal in the kidneys over time / at 60 min post injection [5]: approached baseline

ΔH^‡, enthalpy change of activation of water exchange [1]: 12 ± 1.7 kJ/mol | τM^310K, mean residence time of the water co-ligand at 310 K [1]: 2.9 ± 0.1 ns | r1 relaxivity ([4]; 4.5% w/v HSA (1.4T)): 4.8 mM⁻¹ s⁻¹ | r1 relaxivity ([4]; Human Plasma (1.4T)): 4.9 mM⁻¹ s⁻¹ | r1 relaxivity ([4]; Water (1.4T)): 3.9 mM⁻¹ s⁻¹
SMILES: CC[C@@H]1CN(CC(=O)[O-])[C@H](CC)CN(CC(=O)[O-])[C@H](CC)CN(CC(=O)[O-])[C@H](CC)CN1CC(=O)[O-].[Gd+3] [[Gd(R)L2B]^−]

SMILES: C[C@H](C(=O)[O-])N1CCN([C@H](C)C(=O)[O-])CCN([C@H](C)C(=O)[O-])CCN([C@H](C)C(=O)[O-])CC1.[Gd+3] [Gd-DOTMA]
ΔH^‡ ([6]; SAP isomer): 53.4 ± 2.9 kJ/mol | τM^310K ([6]; SAP isomer): 156 ns | ΔH^‡ ([6]; TSAP isomer): 40.3 ± 2.2 kJ/mol | τM^310K ([6]; TSAP isomer): 26 ns

SMILES: O=C([O-])CN(CCN(CC(=O)[O-])CC(=O)[O-])CCN(CC(=O)[O-])C(COCc1ccccc1)C(=O)[O-].[Gd+3] (stereo not shown) [Gd-BOPTA]
elimination through the biliary system [7]: < 10%

SMILES: O=C([O-])CN(CCN(CC(=O)[O-])C[C@H](COP(=O)([O-])OC1CCC(c2ccccc2)(c2ccccc2)CC1)N(CC(=O)[O-])CC(=O)[O-])CC(=O)[O-].[Gd+3].[H+].[H+].[H+] [MS-325]
blood half-life [7]: unusually long | serum albumin binding [7]: extensive serum albumin binding | elimination through the biliary system [7]: < 10%

ΔH^‡, enthalpy change of activation of water exchange [1]: 33 ± 2.1 kJ/mol | τM^310K, mean residence time of the water co-ligand at 310 K [1]: 8.1 ± 0.4 ns | r1 relaxivity ([4]; 4.5% w/v HSA (1.4T)): 4.5 mM⁻¹ s⁻¹ | r1 relaxivity ([4]; Human Plasma (1.4T)): 4.6 mM⁻¹ s⁻¹ | r1 relaxivity ([4]; Water (1.4T)): 3.9 mM⁻¹ s⁻¹
SMILES: CC[C@@H]1CN(CC(=O)[O-])[C@H](CC)CN(CC(=O)[O-])[C@H](CC)CN(CC(=O)[O-])[C@H](CC)CN1CC(=O)[O-].[Gd+3] [[Gd(R)L2A]^−]

SMILES: C[C@H](C(=O)[O-])N1CCN([C@H](C)C(=O)[O-])CCN([C@H](C)C(=O)[O-])[C@@H](Cc2ccc([N+](=O)[O-])cc2)CN([C@H](C)C(=O)[O-])CC1.[Gd+3] [Gd-NB-DOTMA(S-RRR)]
ΔH^‡ ([6]; S-SSSS = SAP, S-RRR = TSAP): 27.7 kJ/mol | τM^310K ([6]; S-SSSS = SAP, S-RRR = TSAP): 9.4 ns

SMILES: C[C@@H](C(=O)[O-])N1CCN([C@@H](C)C(=O)[O-])CCN([C@@H](C)C(=O)[O-])[C@@H](Cc2ccc([N+](=O)[O-])cc2)CN([C@@H](C)C(=O)[O-])CC1.[Gd+3] [Gd-NB-DOTMA(S-SSSS)]
ΔH^‡ ([6]; S-SSSS = SAP, S-RRR = TSAP): 26.4 kJ/mol | τM^310K ([6]; S-SSSS = SAP, S-RRR = TSAP): 77 ns

Gd(III) present at 6 h post injection ([8]; ICP-MS): Low levels | half-life of the complex ([3]; 1N HCl, room temperature): < 25 h | half-life of the complex ([3]; 100 equivalents of zinc chloride at 50 °C): ~ 100 h | r1 relaxivity ([4]; 4.5% w/v HSA (1.4T)): 4.1 mM⁻¹ s⁻¹ | r1 relaxivity ([4]; Human Plasma (1.4T)): 4.0 mM⁻¹ s⁻¹ | r1 relaxivity ([4]; Water (1.4T)): 3.2 mM⁻¹ s⁻¹
SMILES: O=C([O-])CN1CCN(CC(=O)[O-])CCN(CC(=O)[O-])CCN(CC(=O)[O-])CC1.[Gd+3] [[GdDOTA]^−, reference compound]
Gd biodistribution / elimination profile [8]: rapid elimination from the body via the kidneys | ΔH^‡ ([6]; SAP isomer): 58.1 ± 2.5 kJ/mol | τM^310K ([6]; SAP isomer): 141 ns | ΔH^‡ ([6]; TSAP isomer): 41.9 ± 3.1 kJ/mol | τM^310K ([6]; TSAP isomer): 27 ns

SMILES: CCOc1ccc(C[C@@H](CN(CCN(CC(=O)[O-])CC(=O)[O-])CC(=O)[O-])N(CC(=O)[O-])CC(=O)[O-])cc1.[Gd+3].[Na+].[Na+] [Gd-EOB-DTPA]
biliary clearance share ([7]; mixed clearance): 50% | renal clearance share ([7]; mixed clearance): 50%

Gd biodistribution / elimination profile [8]: mainly distributed in the liver | Gd(III) detected after 60 min (liver retention) ([8]; ICP-MS): negligible amounts
SMILES: CC[C@H]1CN(CC(=O)[O-])[C@@H](CC)CN(CC(=O)[O-])[C@@H](CC)CN(CC(=O)[O-])[C@@H](CC)CN1CC(=O)[O-].[Gd+3] [[GdL2]^−]

SMILES: O=C([O-])CN1CCN(CC(=O)[O-])CCN(CC(=O)[O-])[C@@H](Cc2ccc([N+](=O)[O-])cc2)CN(CC(=O)[O-])CC1.[Gd+3] [Gd-NB-DOTA]
ΔH^‡ ([6]; Mix of isomers): 35.5 kJ/mol | τM^310K ([6]; Mix of isomers): 111 ns

From article PMC5829242, “Chiral DOTA chelators as an improved platform for biomedical imaging and therapy applications” (Nature Communications, 2018)
